The subject of experiment [1] is HRV-C3. The experiment is described as follows: HRV-C3 replication and serial passage in airway organoids with CYT387 or DMSO (viral load by RT-qPCR). The settings on record: human airway organoids; for serial HRV-C propagation (P1-P5) and viral load versus DMSO-treated organoids: 1 μg/ml CYT387, media harvested at 96 h.p.i. It is filed as cell-based, human rhinovirus C. On the procedure: We examined HRV-C replication in airway organoids in the presence or absence of CYT387 (FIG. 2A). Briefly, we inoculated an HRV-C3+ medium (medium collected from organoids infected by an HRV-C3+ clinical specimen) onto the airway organoids pre-treated with 1 μg/ml CYT387 or DMSO. The infected organoids were further incubated with CYT387 (CYT thereafter) or DMSO for 96 hours, after which we harvested the culture medium (P1) to examine viral growth. P1 media from CYT- and mock-treated organoids were brought forward to P2 passage in the presence of CYT and DMSO, respectively (FIG. 2A). […] In the following P3 passage, we had to inoculate CYT-treated P2 media onto airway organoids, in which we continued CYT or DMSO treatment to verify the enhancement effect of CYT. This CYT-treated media inoculation, followed by CYT or DMSO treatment, was repeated in the subsequent P4 and P5 passage.
A total of 9 HRV-C positive archived nasopharyngeal specimens from clinical patients were used for the study. Mature human airway and nasal organoids growing on 24-transwell inserts were washed twice with the basal medium (Advanced DMEM/F-12 (Gibco) supplemented with 1% HEPES, 1% GlutaMAX, and 1% Penicillin/Streptomycin), followed by virus inoculation with the indicated viral gene copy and subsequent incubation in the PD medium (PneumaCult-ALI medium (STEMCELL Technologies) supplemented with 10 μM DAPT and 10 μM Y27632), at 37° C. for 4 h. After incubation, the airway or nasal organoids were washed 3 times with the basal medium to remove residual inoculum. The apical and basolateral chambers were replenished with 300 μl and 500 μl PD medium, respectively. As for CYT387 treatment, airway and nasal organoids were pre-incubated in the PD medium with 1 μg/ml CYT387 (Invivogen, inh-cy87) or DMSO overnight. After virus inoculation, PD medium supplemented with 1 μg/ml CYT387 or DMSO was dispersed into apical and basolateral chambers to maintain the organoids. To assess the effect of temperature on viral growth, we infected nasal organoids with HRV-C3 and HRV-A1 at 100 viral gene copy/cell and maintained the organoids at 33° C. or 37° C. […] Culture media were harvested from the infected organoids at the indicated h.p.i. to detect viral replication. To investigate the antiviral effect of inhibitors on HRV-C replication, organoids were inoculated with HRV-A1 or HRV-C3 at 1000 viral gene copy/cell and incubated with the PD medium in the presence of 1 μM Rupintrivir, 3 μM Itraconazole, or DMSO. The culture media were collected at the indicated h.p.i. for viral load detection. […]
(In general: Real-time PCR tracks product formation cycle by cycle.)

The subject of experiment [2] is HRV-C3. As to the kind of experiment: HRV-C3 serial passage in nasal organoids with CYT387 or DMSO (viral load by RT-qPCR). It is filed as cell-based, human rhinovirus C. The settings on record: human nasal organoids, CYT387 vs DMSO, 100 viral gene copy/cell, 96 h.p.i. On the procedure: We inoculated nasal organoids with the HRV-C3+ medium collected from organoids infected with an HRV-C3+ clinical specimen in the presence of CYT or DMSO and collected culture media at 96 h.p.i. Due to the high viral load in DMSO-treated nasal organoids in a preliminary experiment, we changed the experimental design. Briefly, the virus-containing media from CYT- and DMSO-treated organoids were brought forward to the next round of infection with the CYT and DMSO treatment, respectively (FIG. 3A). […] Nonetheless, in the absence of CYT, nasal organoids derived from two different donors sustained four consecutive passages of HRV-C3 (FIG. 3B). We also tested HRV-C11+ (FIG. 3C) and HRV-C15+ (FIG. 3D) medium (the medium collected from organoids infected with an HRV-C11+ and HRV-C15+ clinical specimen respectively) in nasal organoids derived from another donor. The two subtypes of HRV-C were serially passaged three times with high viral loads, and more passages could be furthered, if necessary. Overall, nasal organoids per se sustained serial propagation of HRV-C without any intervention. […] HRV-C virions released from the nasal organoids were concentrated and applied to transmission electron microscope (TEM) examination. Virion particles sized around 30 nm, and empty capsid particles were readily discernible (FIG. 3F). […]

Experiment [3] deals with HRV-C3. As to the kind of experiment: Antiviral inhibition in airway organoids infected with HRV-C3 (viral load by RT-qPCR). It is filed as cell-based, human rhinovirus C. The settings on record: human airway organoids, 1 μM Rupintrivir or 3 μM Itraconazole, 1000 viral gene copy/cell, compared with HRV-A. On the procedure:
(§1) We then performed an antibody-blocking experiment in nasal organoids to assess the role of CDHR3 on HRV-C replication. We examined HRV-C replication in the nasal organoids in the presence of two a-CDHR3 antibodies or an isotypic IgG. […] Itraconazole^32, a repurposed antifungal drug with documented efficacy against rhinoviruses, was also tested.
(§2) A total of 9 HRV-C positive archived nasopharyngeal specimens from clinical patients were used for the study. Mature human airway and nasal organoids growing on 24-transwell inserts were washed twice with the basal medium (Advanced DMEM/F-12 (Gibco) supplemented with 1% HEPES, 1% GlutaMAX, and 1% Penicillin/Streptomycin), followed by virus inoculation with the indicated viral gene copy and subsequent incubation in the PD medium (PneumaCult-ALI medium (STEMCELL Technologies) supplemented with 10 μM DAPT and 10 μM Y27632), at 37° C. for 4 h. After incubation, the airway or nasal organoids were washed 3 times with the basal medium to remove residual inoculum. The apical and basolateral chambers were replenished with 300 μl and 500 μl PD medium, respectively. As for CYT387 treatment, airway and nasal organoids were pre-incubated in the PD medium with 1 μg/ml CYT387 (Invivogen, inh-cy87) or DMSO overnight. […]

Experiment [4] concerns HRV-A1. As to the kind of experiment: Antiviral inhibition in airway organoids infected with HRV-A1 (viral load by RT-qPCR). It is filed as cell-based, human rhinovirus A. The following applies: human airway organoids, 1 μM Rupintrivir or 3 μM Itraconazole, 1000 viral gene copy/cell, compared with HRV-C. On the procedure:
as §1, §2

Each structure is given as a SMILES string. Entries after “also recorded” stand apart in the source; their conditions may differ.

In the case of `N#CCNC(=O)c1ccc(-c2ccnc(Nc3ccc(N4CCOCC4)cc3)n2)cc1` [CYT387, Momelotinib], the “serial HRV-C propagation (P1-P5) and viral load versus DMSO-treated organoids” value in experiment [1] is listed as “enabled serial propagation”; in experiment [1] (listed as CYT), “consecutively passaged five times; also recorded: higher viral load”. For the same molecule, in experiment [1] (1 μg/ml CYT387, no viral growth in DMSO-treated organoids), the “viral replication in P2 passage” value was “sustained robust viral replication”. Further, in experiment [1] (1 μg/ml CYT387 vs DMSO, first passage, 96 h.p.i.), the “viral load in P1 media” value is reported as “elevated viral load”. The viral growth entry in experiment [2] was “significantly boosted viral growth”.

For the molecule `CCOC(=O)/C=C/[C@H](C[C@@H]1CCNC1=O)NC(=O)[C@@H](CC(=O)[C@@H](NC(=O)c1cc(C)on1)C(C)C)Cc1ccc(F)cc1` [Rupintrivir], in experiment [3], the “inhibitory effect on HRV-C (relative viral load versus DMSO-treated organoids)” value is “more prominent inhibitory effect”. In addition, the “inhibitory effect on HRV-A (relative viral load versus DMSO-treated organoids)” value in experiment [4] is on record as “more prominent inhibitory effect of both drugs on HRV-C than HRV-A”.

The values are drawn from patent US20250257325A1, “SYSTEM AND COMPOSITION OF R[…] FOR P[…] VIRUSES AND METHODS THEREOF” (The University of Hong Kong, priority 2024, published 2025).
